For experiment [1], the system named is CRC343 tumorgraft with MAP2K1 57K>N substitution. The experiment is described as follows: Tumor growth in tumorgraft cohort CRC343. It is filed as in vivo, NOD/SCID mice. As to conditions: CRC343, MAP2K1 57K>N; combination p<0.01, two-way ANOVA.
In experiment [2] the test system is CRC477 tumorgraft with FGFR1 amplification. The experiment is described as follows: Tumor growth in tumorgraft cohort CRC477. As to conditions: 6 mice per cohort, combination p<0.01, two-way ANOVA. It is filed as in vivo, NOD/SCID mice.
Experiment [3] has as its system CRC104 tumorgraft with EGFR 465G>E mutation. Description: Tumor growth in tumorgraft cohort CRC104. Conditions: CRC104, EGFR 465G>E; n=6 for each arm; p<0.01, two-way ANOVA. The format is in vivo, NOD/SCID mice.
Experiment [4] deals with cetuximab-resistant tumors with 492S>R alterations in EGFR. Conditions: EGFR 492S>R, previous reports (32); cited from earlier work.

As for `Cn1cnc2c(F)c(Nc3ccc(Br)cc3Cl)c(C(=O)NOCCO)cc21` [AZD6244], the Tumor growth entry in experiment [1] was “unproductive”.

`CCN1CCN(c2ccc(Nc3cc(N(C)C(=O)Nc4c(Cl)c(OC)cc(OC)c4Cl)ncn3)cc2)CC1` [BGJ398, 3-(2,6-dichloro-3,5-dimethoxy-phenyl)-1-{6-[4-(4-ethyl-piperazin-1-yl)-phenylamino]-pyrimidin-4-yl}-1-methyl-urea]: the Tumor growth result in experiment [2] is on record as “resistant”.

Consider panitumumab, for which the Tumor growth result in experiment [3] is recorded as “poorly sensitive”. Further, in experiment [4], the “Sensitivity of tumors to therapy” value is “sensitive”.

Source of the values: patent US20240344136A1, “RESPONSE TO EGFR BLOCKADE” (The Johns Hopkins University, priority 2015, published 2024).
